Data: patent publication US20230150979A1, “AMIDE-DISUBSTITUTED PYRIDINE OR PYRIDAZINE COMPOUNDS” (BRISTOL-MYERS SQUIBB COMPANY, priority 2019, published 2023)
pIC50: −log10 of the molar value.

Tested on: IFNα-induced STAT phosphorylation (pSTAT5) in human whole blood, CD3 positive population
Assay: IFNα-Induced STAT Phosphorylation in Human Whole Blood
Type: cell-based
Conditions: 1 h incubation with compound, 1000 U/mL recombinant human IFNα A/D for 15 min, pSTAT5 (pY694) median fluorescence in CD3 positive cells, read-out: Human WB IFNα-Induced Stat Phosph. (IC50)
Procedure: IFNα-Induced STAT Phosphorylation in Human Whole Blood
After an hour long incubation with compound, human whole blood (drawn with either EDTA or ACD-A as anti-coagulant) was stimulated with 1000 U/mL recombinant human IFNα A/D (R&D Systems 11200-2) for 15 min. The stimulation was stopped by adding Fix/Lyse buffer (BD 558049). Cells were stained with a CD3 FITC antibody (BD 555916), washed, and permeabilized on ice using Perm III buffer (BD 558050). Cells were then stained with an Alexa-Fluor 647 pSTAT5 (pY694) antibody (BD 612599) for 30 min prior to analysis on the FACS Canto II. The amount of pSTAT5 expression was quantitated by median fluorescence intensity after gating on the CD3 positive population.

SMILES	pIC50
COC(=O)Nc1cc(Nc2cccc(-c3noc(CN(C)S(C)(=O)=O)n3)c2OC)c(C(N)=O)nn1 [Example 51]	7.05
[2H]C([2H])([2H])NC(=O)c1nnc(NC(=O)NCC(C)C)cc1Nc1cccc(-c2ncn(C)n2)c1OC [Example 36]	6.82
[2H]C([2H])([2H])NC(=O)c1nnc(NC(N)=O)cc1Nc1cccc(-c2ncn(C)n2)c1OC [Example 7, 4-((2-methoxy-3-(1-methyl-1H-1,2,4-triazol-3-yl)phenyl)amino)-N-(methyl-d3)-6-ureidopyridazine-3-carboxamide]	6.49
[2H]C([2H])([2H])NC(=O)c1nnc(NC(=O)NCC)cc1Nc1cccc(-c2ncn(C)n2)c1OC [Example 16]	7.70
[2H]C([2H])([2H])NC(=O)c1nnc(NC(=O)NCCCC)cc1Nc1cccc(-c2ncn(C)n2)c1OC [Example 23]	6.82
[2H]C([2H])([2H])NC(=O)c1nnc(NC(=O)N(C)CCc2ccccc2)cc1Nc1cccc(-c2ncn(C)n2)c1OC [Example 39]	5.61
[2H]C([2H])([2H])NC(=O)c1nnc(NC(=O)OC)cc1Nc1cccc(-c2ncc(C(=O)N(C)C)s2)c1OC [Example 53]	6.08
[2H]C([2H])([2H])NC(=O)c1nnc(NC(=O)NC)cc1Nc1cccc(-c2ncn(C)n2)c1OC [Example 45]	7.10
[2H]C([2H])([2H])NC(=O)c1nnc(NC(=O)NCCN(C)C)cc1Nc1cccc(-c2ncn(C)n2)c1OC [Example 75]	6.33
[2H]C([2H])([2H])NC(=O)c1nnc(NC(=O)N(C)CC)cc1Nc1cccc(-c2ncn(C)n2)c1OC [Example 42]	6.46
[2H]C([2H])([2H])NC(=O)c1nnc(NC(=O)OC)cc1Nc1cccc(-c2ncc(C(=O)N3CCC(N4CCN(CCO)CC4)CC3)s2)c1OC [Example 57]	6.60
[2H]C([2H])([2H])NC(=O)c1nnc(NC(=O)NC(C)CC)cc1Nc1cccc(-c2ncn(C)n2)c1OC (centres unmarked) [Example 48]	6.70
[2H]C([2H])([2H])NC(=O)c1cnc(NC(=O)OC)cc1Nc1cccc(-c2ncn(C)n2)c1OC [Example 30]	7.00
[2H]C([2H])([2H])NC(=O)c1nnc(NC(=O)OC)cc1Nc1cccc(-c2ncc(C(=O)N3CCC3)s2)c1OC [Example 55]	6.12
